According to paper PMC5890937 (European journal of medicinal chemistry, 2017):
Where “and” joins values, the source holds several entries; their conditions need not be identical. Equal values may be shown once. Blank lines part the entries; values can stand above or below the compound they belong to.

Experiments:
HDAC6 [1] = molecular target: T1, HDAC6 (Homo sapiens, UniProt Q9UBN7); assay: ELISA-based HDAC activity assay, HDAC6; format: biochemical; conditions: for HDAC6 selectivity over HDAC1, 2, and 3 / fold selectivity for HDAC6 and HDAC8 over HDAC1, 2, and 3: from IC50 values; for isoform selectivity in single concentration screen (HDAC6 versus HDAC1, 2, 3): 1a-f at 0.75, 0.75, 2.5, 1.25, 2.5, and 5 μM, SAHA at 1 μM
T1 sequence (Q9UBN7 1-1215): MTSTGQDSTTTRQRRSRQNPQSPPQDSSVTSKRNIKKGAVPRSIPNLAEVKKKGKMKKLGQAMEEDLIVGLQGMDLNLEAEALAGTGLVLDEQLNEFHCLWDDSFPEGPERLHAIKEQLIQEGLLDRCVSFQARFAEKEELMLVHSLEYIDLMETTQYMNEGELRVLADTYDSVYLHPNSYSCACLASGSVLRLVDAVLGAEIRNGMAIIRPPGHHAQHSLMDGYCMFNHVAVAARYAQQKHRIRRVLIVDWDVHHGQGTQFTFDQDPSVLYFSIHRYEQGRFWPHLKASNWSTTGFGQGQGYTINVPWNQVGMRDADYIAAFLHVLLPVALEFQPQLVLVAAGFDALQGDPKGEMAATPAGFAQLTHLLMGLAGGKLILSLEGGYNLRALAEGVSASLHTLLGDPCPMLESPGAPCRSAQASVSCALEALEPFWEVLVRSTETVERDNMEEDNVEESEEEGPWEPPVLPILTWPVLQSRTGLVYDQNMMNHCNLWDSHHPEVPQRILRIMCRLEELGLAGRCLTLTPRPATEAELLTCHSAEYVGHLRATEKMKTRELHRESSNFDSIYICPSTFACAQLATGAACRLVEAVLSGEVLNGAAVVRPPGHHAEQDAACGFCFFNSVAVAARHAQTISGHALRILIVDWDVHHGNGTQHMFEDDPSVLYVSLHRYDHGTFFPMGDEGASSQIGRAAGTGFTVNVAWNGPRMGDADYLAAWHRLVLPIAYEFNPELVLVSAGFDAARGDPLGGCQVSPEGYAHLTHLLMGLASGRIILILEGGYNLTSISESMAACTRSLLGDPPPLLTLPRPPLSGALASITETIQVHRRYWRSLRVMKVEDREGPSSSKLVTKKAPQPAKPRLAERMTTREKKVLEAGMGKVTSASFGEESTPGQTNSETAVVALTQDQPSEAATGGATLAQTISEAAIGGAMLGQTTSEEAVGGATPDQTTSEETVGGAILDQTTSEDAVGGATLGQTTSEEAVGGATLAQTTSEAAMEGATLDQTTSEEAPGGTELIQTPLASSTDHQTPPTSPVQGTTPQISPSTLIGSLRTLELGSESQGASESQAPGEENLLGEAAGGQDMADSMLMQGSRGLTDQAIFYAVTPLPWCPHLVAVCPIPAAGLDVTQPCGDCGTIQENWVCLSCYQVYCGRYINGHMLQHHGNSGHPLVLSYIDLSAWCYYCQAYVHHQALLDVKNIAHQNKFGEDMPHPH

acetyl-α-tubulin (AcTub) = assay: In cellulo selectivity testing, western blot of acetyl-α-tubulin in U937 cells; format: cell-based, human; conditions: SAHA 5 μM, 1f 20-60 μM, 18 hours
HDAC6 [2] = conditions: cited from earlier work
HDAC8 = conditions: read-out: IC50 with HDAC8; cited from earlier work
HeLa cell lysates = assay: Global HDAC inhibition with HeLa cell lysates; format: biochemical, human; conditions: HeLa cell lysates IC50 relative to SAHA

HDAC6 selectivity over HDAC1, 2, and 3 (HDAC6 [1]): at least 210 fold | fold selectivity for HDAC6 and HDAC8 over HDAC1, 2, and 3 (HDAC6 [1]): 170- to 480 fold and 210- to 480 fold
SMILES: CCCCCCC(CCCC(=O)Nc1ccccc1)CCC(=O)NO (centres unmarked) [Compound 1d, 4-hexyl-N^1-hydroxy-N^8-phenyloctanediamide]

fold selectivity for HDAC6 and HDAC8 over HDAC1, 2, and 3 (HDAC6 [1]): 520- to 1300 fold
SMILES: O=C(CC[C@@H](CCCC(=O)Nc1ccccc1)Cc1ccccc1)NO [(R)-1f, (R)-4-benzyl-N^1-hydroxy-N^8-phenyloctanediamide]

isoform selectivity in single concentration screen (HDAC6 versus HDAC1, 2, 3) (HDAC6 [1]): greatest difference in potency | HDAC6 selectivity over HDAC1, 2, and 3 (HDAC6 [1]): at least 210 fold | fold selectivity for HDAC6 and HDAC8 over HDAC1, 2, and 3 (HDAC6 [1]): 210- to 740 fold
SMILES: O=C(CCC(CCCC(=O)Nc1ccccc1)Cc1ccccc1)NO (centres unmarked) [Compound 1f, 4-benzyl-N^1-hydroxy-N^8-phenyloctanediamide]
levels of acetyl-α-tubulin (HDAC6 substrate) (acetyl-α-tubulin (AcTub)): dose-dependent increase

fold selectivity for HDAC6 and HDAC8 over HDAC1, 2, and 3 (HDAC6 [1]): 240- to 540 fold
SMILES: O=C(CC[C@H](CCCC(=O)Nc1ccccc1)Cc1ccccc1)NO [(S)-1f, (S)-4-benzyl-N^1-hydroxy-N^8-phenyloctanediamide]

SMILES: O=C(CCCC(CCC(=O)Nc1ccccc1)Cc1ccccc1)NO (centres unmarked) [C5-benzyl SAHA]
HDAC6/8 selectivity (HDAC6 [2]): 8- to 21 fold | IC50 (HDAC6 [2]; read-out: IC50 with HDAC6): 270 nM | IC50 (HDAC8): 380 nM

isoform selectivity in single concentration screen (HDAC6 versus HDAC1, 2, 3) (HDAC6 [1]): smallest difference in potency
SMILES: CC(CCCC(=O)Nc1ccccc1)CCC(=O)NO (centres unmarked) [Compound 1a, N^1-hydroxy-4-methyl-N^8-phenyloctanediamide]
fold less potent compared to SAHA (HeLa cell lysates): 18 fold

SMILES: CCCC(CCC)C(=O)NO [Valpropylhydroxamic acid]
selectivity for HDAC6 and 8 against HDAC1, 2, and 3 (HDAC6 [2]): 9-17 fold
